Laboratory results as given in the supplement of paper PMC5752671.
Where a name gives a salt, the structure may show the parent alone.

Tests used:
Assay in all cases: area under dose-response curve (cell viability) (AUC (arbitrary, % viability x log concentration)); higher = less sensitive (more viable)
Details in all cases: 4 days
KASUMI1 = tested on: KASUMI1
Summary of the method: (§1)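 After overnight plating on extracellular-matrix-coated 384-well plates, fourteen leukemia cell lines received drugs by robot in duplicate at eight per-drug concentrations spanning 4–5 logs within 10^–12–10^–4 M. CellTiter-Glo was used to read viability 4 days later, and a four-parameter sigmoid was fitted to the mean of the duplicates. The reported figure is the area under this curve.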

KG1 = tested on: KG1
Summary of the method: as §1

MOLM/16 = tested on: MOLM/16
Summary of the method: as §1

MV4.11 = tested on: MV4.11
Summary of the method: as §1

NB4 = tested on: NB4
Summary of the method: as §1

OCI-AML2 = tested on: OCI-AML2
Summary of the method: as §1

OCI-AML3 = tested on: OCI-AML3
Summary of the method: as §1

PL-21 = tested on: PL-21
Summary of the method: as §1

SKM1 = tested on: SKM1
Summary of the method: as §1

THP-1 = tested on: THP-1
Summary of the method: as §1

SMILES	area under dose-response curve (KASUMI1)	area under dose-response curve (KG1)	area under dose-response curve (MOLM/16)	area under dose-response curve (MV4.11)	area under dose-response curve (NB4)	area under dose-response curve (OCI-AML2)	area under dose-response curve (OCI-AML3)	area under dose-response curve (PL-21)	area under dose-response curve (SKM1)	area under dose-response curve (THP-1)
CC(=O)Nc1cccc(-n2c(=O)n(C3CC3)c(=O)c3c(Nc4ccc(I)cc4F)n(C)c(=O)c(C)c32)c1	371	431	450	468	407	196	218	350	253	497
CN(C)CCCn1cc(C2=C(c3c[nH]c4ccccc34)C(=O)NC2=O)c2ccccc21	647	608	543	500	648	582	663	591	601	701
CN1CCC(COc2cnc(-c3cccc(Cn4nc(-c5cccc(C#N)c5)ccc4=O)c3)nc2)CC1	715	668	670	688	627	650	696	635	696	719
COc1cc(OC)c(/C=C/S(=O)(=O)Cc2ccc(OC)c(NCC(=O)O)c2)c(OC)c1	474	403	314	363	404	344	337	349	425	403
C[C@@]1(C(=O)Nc2ccc(F)nc2)CCCN1c1nc(Nc2cc(C3CC3)n[nH]2)c2cccn2n1	405	510	404	570	435	476	587	372	464	591
Cc1ccc(C(=O)Nc2ccc(CN3CCN(C)CC3)c(C(F)(F)F)c2)cc1C#Cc1cnc2cccnn12	433	363	462	224	458	525	539	499	574	583
Cc1ccccc1-n1c(Cn2cnc3c(N)ncnc32)nc2cccc(C)c2c1=O	665	718	644	650	667	633	664	614	637	679
N#CC[C@H](C1CCCC1)n1cc(-c2ncnc3[nH]ccc23)cn1	681	631	595	649	656	626	669	609	681	684
NC(=O)[C@@H](CCC(F)(F)F)N(Cc1ccc(-c2ncon2)cc1F)S(=O)(=O)c1ccc(Cl)cc1	634	616	647	711	675	652	682	655	672	690
CN(C)CC[C@H](CSc1ccccc1)Nc1ccc(S(=O)(=O)NC(=O)c2ccc(N3CCN(Cc4ccccc4-c4ccc(Cl)cc4)CC3)cc2)cc1[N+](=O)[O-] [ABT-737]	403	497	467	342	503	400	543	514	524	538
C[C@]1(c2nc3c(C(N)=O)cccc3[nH]2)CCCN1 [ABT-888]	663	684	616	654	606	620	629	619	629	690
CC(C)(C)c1cc(NC(=O)Nc2ccc(-c3cn4c(n3)sc3cc(OCCN5CCOCC5)ccc34)cc2)no1 [AC-220]	408	650	604	154	576	542	536	528	629	566
O=C1NC(=O)[C@@H](c2cn3c4c(cccc24)CCC3)[C@@H]1c1c[nH]c2ccccc12 [ARQ-197]	523	505	390	507	409	489	468	478	510	478
CCN(CC)CCCC(C)Nc1c2ccc(Cl)cc2nc2ccc(OC)cc12 (stereo not given) [Acrichine]	639	641	625	615	607	559	611	570	617	661
Nc1cc(C(F)(F)F)c(-c2cc(N3CCOCC3)nc(N3CCOCC3)n2)cn1 [BKM-120]	602	566	473	599	558	558	538	523	539	602
NC(=O)c1ccc2nc(-c3ccc(Oc4ccc(Cl)cc4)cc3)[nH]c2c1 [BML 277]	735	683	628	715	652	724	692	628	672	714
NC(=O)c1ccc(I)c([N+](=O)[O-])c1 [BSI-201]	722	655	661	683	642	664	697	624	664	681
CC(C)C[C@H](NC(=O)[C@H](Cc1ccccc1)NC(=O)c1cnccn1)B(O)O [Bortezomib]	338	330	321	338	286	330	308	307	268	340
CS(=O)(=O)OCCCCOS(C)(=O)=O [Busulfan]	651	667	651	641	617	639	666	621	666	636

SMILES	area under dose-response curve (KASUMI1)	area under dose-response curve (KG1)	area under dose-response curve (MOLM/16)	area under dose-response curve (MV4.11)	area under dose-response curve (NB4)	area under dose-response curve (OCI-AML2)	area under dose-response curve (OCI-AML3)	area under dose-response curve (PL-21)	area under dose-response curve (SKM1)	area under dose-response curve (THP-1)
CC[C@H](Nc1ncnc2[nH]cnc12)c1nc2cccc(F)c2c(=O)n1-c1ccccc1 [CAL-101]	552	653	615	577	581	573	616	624	603	632
O=C(O)C1(C(=O)O)CCC1.[NH2-].[NH2-].[Pt+2] [Carboplatin]	749	726	672	631	665	608	685	644	677	737
N.N.[Cl][Pt][Cl] [Cisplatin]	731	760	650	719	665	646	678	639	657	761
Nc1nc(Cl)nc2c1ncn2[C@H]1C[C@H](O)[C@@H](CO)O1 [Cladribine]	512	553	359	218	395	194	265	269	419	496
Nc1nc(Cl)nc2c1ncn2[C@@H]1O[C@H](CO)[C@@H](O)[C@@H]1F [Clofarabine]	574	575	462	518	470	419	459	353	473	562
C[C@@H](Oc1cc(-c2cnn(C3CCNCC3)c2)cnc1N)c1c(Cl)ccc(F)c1Cl [Crizotinib]	639	674	522	591	566	614	616	562	623	700
Nc1ccn([C@@H]2O[C@H](CO)[C@@H](O)[C@@H]2O)c(=O)n1 [Cytarabine HCl]	383	386	395	378	363	110	417	224	413	452
Cc1nc(Nc2ncc(C(=O)Nc3c(C)cccc3Cl)s2)cc(N2CCN(CCO)CC2)n1 [Dasatinib]	469	687	571	613	662	619	695	579	575	734
COc1cccc2c1C(=O)c1c(O)c3c(c(O)c1C2=O)C[C@@](O)(C(C)=O)C[C@@H]3O[C@H]1C[C@H](N)[C@H](O)[C@H](C)O1 [Daunorubicin HCl]	440	495	437	339	413	399	454	427	395	480
Nc1ncn([C@H]2C[C@H](O)[C@@H](CO)O2)c(=O)n1 [Decitabine]	516	516	138	303	278	362	503	461	452	530
COc1cc2nccc(Oc3ccc(NC(=O)NC4CC4)c(Cl)c3)c2cc1C(N)=O [E7080]	515	334	629	558	629	638	682	621	707	713
Cn1cc(C2=C(c3cn(C4CCN(Cc5ccccn5)CC4)c4ccccc34)C(=O)NC2=O)c2ccccc21 [Enzastaurin]	700	734	685	690	646	678	706	646	673	703
C#Cc1cccc(Nc2ncnc3cc(OCCOC)c(OCCOC)cc23)c1 [Erlotinib HCl]	683	627	556	628	670	672	685	610	665	699
CCc1cccc2c3c([nH]c12)C(CC)(CC(=O)O)OCC3 (stereo not given) [Etodolac]	678	707	672	705	624	648	683	626	685	705
COc1cc([C@@H]2c3cc4c(cc3[C@@H](O[C@@H]3O[C@@H]5CO[C@@H](C)O[C@H]5[C@H](O)[C@H]3O)[C@H]3COC(=O)[C@H]23)OCO4)cc(OC)c1O [Etoposide]	470	568	467	283	353	229	466	551	374	540
CO[C@H]1C[C@@H]2CC[C@@H](C)[C@@](O)(O2)C(=O)C(=O)N2CCCC[C@H]2C(=O)O[C@H]([C@H](C)C[C@@H]2CC[C@@H](OCCO)[C@H](OC)C2)CC(=O)[C@H](C)/C=C(\C)[C@@H](O)[C@@H](OC)C(=O)[C@H](C)C[C@H](C)/C=C/C=C/C=C/1C [Everolimus]	471	501	408	392	580	509	553	438	430	502
CSCC[C@H](NC(=O)c1ccc(NC[C@@H](N)CS)cc1-c1ccccc1)C(=O)O [FTI-276]	722	768	611	641	601	611	660	601	668	765
CC1=C(/C=C/C(C)=C/C=C/C(C)=C/C(=O)Nc2ccc(O)cc2)C(C)(C)CCC1 [Fenretinide]	691	618	535	545	536	545	570	565	581	653
